Test results taken from patent publication US20210205329A1 (The University of North Carolina at Chapel Hill, priority 2018, published 2021).

What was measured:
HMGB1 binding to TLR4 = molecular target: T1, HMGB1 binding to TLR4 (Rattus norvegicus, UniProt Q9QX05); test: TLR4/HMGB1 co-immunoprecipitation in P rat VTA; type: in vivo; details: 15 mg/kg IP, P rats
T1 construct: from tissue; host or cells: ventral tegmental area (VTA) of alcohol-preferring (P) rats
T1 sequence (Q9QX05 26-835): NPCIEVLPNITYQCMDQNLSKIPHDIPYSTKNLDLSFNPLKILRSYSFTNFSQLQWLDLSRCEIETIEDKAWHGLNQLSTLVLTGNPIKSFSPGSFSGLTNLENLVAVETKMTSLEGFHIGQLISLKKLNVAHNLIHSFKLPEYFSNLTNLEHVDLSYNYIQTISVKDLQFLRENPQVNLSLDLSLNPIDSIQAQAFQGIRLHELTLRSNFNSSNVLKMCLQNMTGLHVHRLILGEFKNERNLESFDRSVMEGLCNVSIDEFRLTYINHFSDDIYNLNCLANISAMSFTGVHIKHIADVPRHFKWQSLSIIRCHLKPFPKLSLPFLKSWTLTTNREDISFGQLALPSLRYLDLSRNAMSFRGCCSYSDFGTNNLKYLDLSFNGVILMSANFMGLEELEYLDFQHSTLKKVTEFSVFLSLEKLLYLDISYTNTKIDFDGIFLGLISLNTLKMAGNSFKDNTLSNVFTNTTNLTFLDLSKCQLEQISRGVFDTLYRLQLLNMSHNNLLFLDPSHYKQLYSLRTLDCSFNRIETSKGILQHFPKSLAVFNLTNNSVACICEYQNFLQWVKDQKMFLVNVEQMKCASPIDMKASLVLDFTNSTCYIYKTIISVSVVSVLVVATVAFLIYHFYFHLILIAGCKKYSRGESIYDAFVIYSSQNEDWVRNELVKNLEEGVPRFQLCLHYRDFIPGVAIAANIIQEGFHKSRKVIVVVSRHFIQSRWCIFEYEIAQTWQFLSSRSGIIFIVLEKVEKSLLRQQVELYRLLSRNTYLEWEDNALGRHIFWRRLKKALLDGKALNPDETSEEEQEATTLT
Method: Co-Immunoprecipitation Assay RAW264.7 cells [treated with LPS (1 μg/ml), 3α,5α-THP (1 μM) or pregnenolone (1 μM)] were exposed to chemical protein crosslinking (Poulopoulos et al, 2009) at 24 hrs post-treatment. Briefly, the cells were incubated (20 min on ice) with 1 mM of the cleavable, membrane-permeable crosslinker DSP (Thermo Fisher Scientific, Cat. #PG82081). Rat VTA homogenates were incubated (20 min on ice) with 200 μM of DSP. The crosslinker was quenched in 1 M Tris buffer (pH 7.5) (to a final concentration of 10-20 mM), and the material was centrifuged at 21,000×g for 15 min. Proteins from the cells were extracted with Pierce IP Lysis Buffer (Thermo Fisher Scientific, Cat. #87787) supplemented with protease and phosphatase inhibitor cocktails (Sigma). Proteins from the VTA were extracted with CelLytic MT (dialyzable mild detergent, bicine and 150 mM NaCl; Sigma Aldrich, St. Louis, Mo., USA, Cat. #C3228) supplemented with protease and phosphatase inhibitor cocktails (Sigma) according to the manufacturers instructions. […]

TLR2 signaling = test: Pam3Cys-activated TLR2 signaling in RAW264.7 cells; type: cell-based, mouse
Method: (§1) Because multiple TLRs signal through MD-2, […] and MyD-88, the specificity of the neurosteroid 3α,5α-THP on TLR2, TLRS and TLR7 signal activation was examined in RAW264.7 ceils (FIG. 7). Pam3Cys (10 μg/ml) activated TLR2 signaling, evidenced by increases in pCREB, pERK1/2, TRAF6 and pATF-2, that were sustained for 24 hrs and inhibited by 3α,5α-THP (1 μM) (50-60% compared to vehicle).

TLR7 signal = test: Imiquimod-activated TLR7 signaling in RAW264.7 cells; type: cell-based, mouse; details: 1 μM; imiquimod 1 μg/ml; 24 hours
Method: as §1

CC(=O)[C@H]1CC[C@H]2[C@@H]3CC[C@H]4C[C@H](O)CC[C@]4(C)[C@H]3CC[C@]12C [3α,5α-THP, (3α,5α)3-hydroxypregnan-20-one]
HMGB1 binding to TLR4 in VTA (HMGB1 binding to TLR4): not altered
effect of Pam3Cys on pCREB, pERK1/2, pATF2 and TRAF6 (TLR2 signaling; 1 μM, Pam3Cys 10 μg/ml, harvested after 24 hrs): completely inhibited
inhibition at 1 µM (TLR2 signaling; Mus musculus, RAW264.7, Pam3Cys 10 μg/ml, 24 hrs, compared to vehicle, read-out: inhibition of Pam3Cys-induced increases in pCREB, pERK1/2, TRAF6 and pATF-2): 50 to 60%
effect of imiquimod on pIRF7 (TLR7 signal): completely inhibited
